Data: patent US20230172848A1, “ORAL FILM FOR SAFE ADMINISTRATION OF API” (LABTEC GMBH, priority 2020, published 2023)
Read-outs that look alike come from different tables or passages of the source.

Legend:
[1] = acceptor medium of buffer pH 7.0
Procedure: The dosage unit prepared from formulation F6 were tested for ex-vivo permeation on porcine buccal mucosa in vertical Franz-cells.

[2] = cited from earlier work
[3] = cited from earlier work; for required dose for induction of anesthesia: 1% solution i.v.
[4] = in vivo; cited from earlier work

In the case of `CC(C)c1cccc(C(C)C)c1O` [propofol, 2,6-diisopropylphenol], the “concentration of saturated solution” value [1] is listed as “about 167.8 μg/ml”, the “blood level required for the sedative effect” value ([2]; Dhir et al., 2016) is listed as 1.5 to 2.0 µg/mL and the “average blood concentration required for anesthetic effect” value ([2]; major surgeries) is listed as 4.05 ± 1.01 µg/mL. For the same compound, the “blood concentration sufficient for anesthetic effect” value ([2]; minor surgical procedures) was 2.97 ± 1.07 µg/mL, the “required dose for induction of anesthesia” value ([3]; adult patients aged less than 55 years) was 1.5-2.5 mg/kg body weight and the “required dose for induction of anesthesia” value ([3]; children over 8 years) was “about 2.5 mg/kg body weight”. For the same compound, the “rate of administration that maintains the anesthetic effect” value ([3]; adults under the age of 55) was 4-12 mg/kg body weight/h, the “rate of administration that maintains the anesthesia” value ([3]; children over the age of 1 month) was 9-15 mg/kg body weight/h and the oral bioavailability [4] was “very low”.
